Reference: ChEMBL document CHEMBL1144370, “3-Acyl-2,6-diaminopyridines as cyclin-dependent kinase inhibitors: synthesis and biological evaluation” (Bioorg Med Chem Lett, 2005)

Experiments:
HCT-116 = assay: Compound tested for anti-proliferative activity against HCT116 cells; assay type: functional, cell-based; settings: Homo sapiens
[1] = target: Cyclin-dependent kinase 2 (Homo sapiens, UniProt P24941); assay: In vitro inhibitory concentration against cyclin-dependent kinase 2
HeLa = assay: Compound tested for anti-proliferative activity against HeLa cells; assay type: functional, cell-based; settings: Homo sapiens
[2] = target: T1, Vascular endothelial growth factor receptor 2 (Homo sapiens, UniProt P35968); assay: In vitro inhibitory concentration against vascular endothelial growth factor receptor 2
[3] = In vitro inhibitory concentration against cyclin-dependent kinase 1; set-up: species or system Homo sapiens
[4] = target: Epidermal growth factor receptor (Homo sapiens, UniProt P00533); assay: In vitro inhibitory concentration against epidermal growth factor receptor
[5] = target: Receptor tyrosine-protein kinase erbB-2 (Homo sapiens, UniProt P04626); assay: In vitro inhibitory concentration against HER2
A-375 = assay: Compound tested for anti-proliferative activity against A375 cells; assay type: functional, cell-based; settings: Homo sapiens
[6] = target: T1, Vascular endothelial growth factor receptor 2; assay: In vitro inhibitory concentration against Vascular endothelial growth factor receptor 2

Sequence of Receptor tyrosine-protein kinase erbB-2 (P04626 whole entry): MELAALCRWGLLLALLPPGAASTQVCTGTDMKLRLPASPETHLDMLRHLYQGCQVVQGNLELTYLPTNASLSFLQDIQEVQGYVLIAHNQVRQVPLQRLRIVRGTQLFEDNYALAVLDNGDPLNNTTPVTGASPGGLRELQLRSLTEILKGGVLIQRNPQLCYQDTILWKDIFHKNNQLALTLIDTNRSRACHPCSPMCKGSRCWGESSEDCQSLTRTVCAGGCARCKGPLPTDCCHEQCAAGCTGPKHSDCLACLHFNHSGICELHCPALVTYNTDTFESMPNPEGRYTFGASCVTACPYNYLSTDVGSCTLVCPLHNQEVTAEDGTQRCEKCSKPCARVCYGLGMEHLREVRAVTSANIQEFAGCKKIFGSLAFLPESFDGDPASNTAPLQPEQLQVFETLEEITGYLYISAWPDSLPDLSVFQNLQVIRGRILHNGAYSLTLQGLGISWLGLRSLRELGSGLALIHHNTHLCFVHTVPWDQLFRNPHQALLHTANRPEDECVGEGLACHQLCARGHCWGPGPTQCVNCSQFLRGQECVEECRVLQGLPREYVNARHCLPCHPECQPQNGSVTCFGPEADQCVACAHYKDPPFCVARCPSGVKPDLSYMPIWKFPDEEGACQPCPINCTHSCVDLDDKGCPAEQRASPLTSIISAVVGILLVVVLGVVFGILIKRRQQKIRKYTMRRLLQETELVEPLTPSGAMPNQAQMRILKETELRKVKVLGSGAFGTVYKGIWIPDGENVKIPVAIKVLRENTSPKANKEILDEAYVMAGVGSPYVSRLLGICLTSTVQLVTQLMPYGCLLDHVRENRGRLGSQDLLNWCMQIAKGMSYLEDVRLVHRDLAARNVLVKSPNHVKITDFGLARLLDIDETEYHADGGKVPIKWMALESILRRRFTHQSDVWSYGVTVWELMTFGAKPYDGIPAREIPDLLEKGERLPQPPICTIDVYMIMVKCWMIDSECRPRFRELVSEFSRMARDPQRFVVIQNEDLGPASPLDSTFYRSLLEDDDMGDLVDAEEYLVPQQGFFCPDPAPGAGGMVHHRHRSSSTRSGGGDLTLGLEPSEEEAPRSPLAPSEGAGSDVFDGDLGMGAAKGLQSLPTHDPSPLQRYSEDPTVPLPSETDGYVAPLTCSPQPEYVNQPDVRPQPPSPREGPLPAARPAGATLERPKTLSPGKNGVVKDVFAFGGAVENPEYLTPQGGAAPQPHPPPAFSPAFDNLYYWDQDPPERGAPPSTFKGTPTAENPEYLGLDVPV
Sequence of Epidermal growth factor receptor (P00533 whole entry): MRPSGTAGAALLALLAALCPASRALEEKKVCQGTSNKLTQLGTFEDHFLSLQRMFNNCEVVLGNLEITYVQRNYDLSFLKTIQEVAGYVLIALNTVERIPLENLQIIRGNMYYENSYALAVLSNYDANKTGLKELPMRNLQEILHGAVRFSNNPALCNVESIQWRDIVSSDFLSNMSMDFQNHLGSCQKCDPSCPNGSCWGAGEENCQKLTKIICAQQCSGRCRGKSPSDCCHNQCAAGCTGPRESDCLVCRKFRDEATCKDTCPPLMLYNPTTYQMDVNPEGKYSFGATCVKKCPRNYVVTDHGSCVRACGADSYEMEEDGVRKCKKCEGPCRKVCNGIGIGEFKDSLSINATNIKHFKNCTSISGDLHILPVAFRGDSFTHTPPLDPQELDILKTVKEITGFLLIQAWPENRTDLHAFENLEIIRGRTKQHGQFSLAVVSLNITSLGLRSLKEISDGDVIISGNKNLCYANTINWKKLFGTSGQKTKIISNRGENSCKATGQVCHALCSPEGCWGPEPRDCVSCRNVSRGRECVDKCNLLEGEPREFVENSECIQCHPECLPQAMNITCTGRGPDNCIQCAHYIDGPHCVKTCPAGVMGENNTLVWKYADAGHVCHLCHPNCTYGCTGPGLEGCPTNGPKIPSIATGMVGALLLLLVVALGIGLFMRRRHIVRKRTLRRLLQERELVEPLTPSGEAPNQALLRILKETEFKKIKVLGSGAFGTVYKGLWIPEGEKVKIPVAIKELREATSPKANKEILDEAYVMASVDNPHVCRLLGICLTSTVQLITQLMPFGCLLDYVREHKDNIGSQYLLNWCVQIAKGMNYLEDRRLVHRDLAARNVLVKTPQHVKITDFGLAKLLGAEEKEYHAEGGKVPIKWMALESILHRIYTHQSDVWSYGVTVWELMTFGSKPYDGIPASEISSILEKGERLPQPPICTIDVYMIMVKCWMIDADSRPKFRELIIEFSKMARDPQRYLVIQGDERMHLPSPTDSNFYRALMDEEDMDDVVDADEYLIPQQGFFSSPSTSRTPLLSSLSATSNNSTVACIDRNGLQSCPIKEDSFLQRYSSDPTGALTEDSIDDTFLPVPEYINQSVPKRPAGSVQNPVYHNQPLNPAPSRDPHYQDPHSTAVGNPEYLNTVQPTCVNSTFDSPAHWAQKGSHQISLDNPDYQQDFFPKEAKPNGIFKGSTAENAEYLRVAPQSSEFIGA
T1 sequence (P35968 whole entry): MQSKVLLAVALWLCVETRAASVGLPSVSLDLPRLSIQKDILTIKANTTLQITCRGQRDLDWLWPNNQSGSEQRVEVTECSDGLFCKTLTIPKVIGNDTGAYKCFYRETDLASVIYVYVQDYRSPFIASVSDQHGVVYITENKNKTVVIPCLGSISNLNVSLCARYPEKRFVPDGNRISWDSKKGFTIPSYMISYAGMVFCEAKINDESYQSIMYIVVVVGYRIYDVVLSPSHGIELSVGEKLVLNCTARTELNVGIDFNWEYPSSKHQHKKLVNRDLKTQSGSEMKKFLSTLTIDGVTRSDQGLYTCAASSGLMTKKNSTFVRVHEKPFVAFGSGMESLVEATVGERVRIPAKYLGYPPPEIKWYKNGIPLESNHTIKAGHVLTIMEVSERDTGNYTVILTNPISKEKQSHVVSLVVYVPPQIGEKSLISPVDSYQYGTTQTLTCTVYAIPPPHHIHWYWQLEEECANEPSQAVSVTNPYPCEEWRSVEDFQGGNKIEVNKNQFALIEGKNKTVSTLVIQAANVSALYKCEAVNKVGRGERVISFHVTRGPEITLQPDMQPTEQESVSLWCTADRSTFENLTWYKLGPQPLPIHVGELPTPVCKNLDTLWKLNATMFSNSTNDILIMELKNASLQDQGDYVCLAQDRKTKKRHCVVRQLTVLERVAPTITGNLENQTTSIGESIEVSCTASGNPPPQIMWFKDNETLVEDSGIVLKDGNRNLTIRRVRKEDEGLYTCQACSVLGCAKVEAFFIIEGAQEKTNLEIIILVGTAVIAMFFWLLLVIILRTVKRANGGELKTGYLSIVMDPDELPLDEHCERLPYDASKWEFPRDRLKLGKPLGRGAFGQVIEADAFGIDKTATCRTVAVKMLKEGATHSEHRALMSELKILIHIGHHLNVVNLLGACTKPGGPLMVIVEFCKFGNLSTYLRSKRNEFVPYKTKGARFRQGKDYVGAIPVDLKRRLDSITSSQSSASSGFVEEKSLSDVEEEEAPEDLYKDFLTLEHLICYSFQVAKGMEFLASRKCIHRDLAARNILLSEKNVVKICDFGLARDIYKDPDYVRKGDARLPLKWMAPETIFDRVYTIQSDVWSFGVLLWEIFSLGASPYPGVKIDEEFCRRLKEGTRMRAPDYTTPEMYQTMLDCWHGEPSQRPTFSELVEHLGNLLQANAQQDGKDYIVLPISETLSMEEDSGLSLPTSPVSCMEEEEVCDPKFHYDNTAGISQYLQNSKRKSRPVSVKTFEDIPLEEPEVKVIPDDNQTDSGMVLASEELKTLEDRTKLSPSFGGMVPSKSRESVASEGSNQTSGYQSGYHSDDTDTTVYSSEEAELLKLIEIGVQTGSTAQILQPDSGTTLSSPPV

IC50 [3] | SMILES | further results
0.59 µM | CN(C)S(=O)(=O)c1ccc(Nc2ccc(C(=O)c3c(F)cccc3F)c(N)n2)cc1 | IC50 (HCT-116): > 10 µM; IC50 [1]: 0.5 µM; IC50 (HeLa): > 10 µM; IC50 [2]: > 100 µM; IC50 [4]: > 100 µM; IC50 [5]: > 100 µM; IC50 (A-375): > 10 µM
1.1 µM | Nc1ccc(C(=O)c2ccccc2)c(N)n1 | –
0.36 µM | Nc1nc(Nc2ccc(S(N)(=O)=O)cc2)ccc1C(=O)c1c(F)cccc1F | IC50 (HCT-116): 16.5 µM; IC50 [1]: 0.18 µM; IC50 (HeLa): 17.2 µM; IC50 [4]: > 100 µM; IC50 [6]: > 100 µM; IC50 [5]: > 100 µM; IC50 (A-375): 6.5 µM
0.74 µM | Nc1nc(Nc2ccc(NS(=O)(=O)c3ccccc3)cc2)ccc1C(=O)c1c(F)cccc1F | –
8.2 µM | Nc1ccc(C(=O)c2ccccc2F)c(N)n1 | –
> 100 µM | CCN(CC)S(=O)(=O)c1ccc(Nc2ccc(C(=O)c3ccco3)c(N)n2)cc1 | –
1.37 µM | N#Cc1ccc(Nc2ccc(C(=O)c3c(F)cccc3F)c(N)n2)cc1 | –
2.67 µM | Nc1nc(Nc2cccc([N+](=O)[O-])c2)ccc1C(=O)c1c(F)cccc1F | –
0.75 µM | Nc1ccc(Nc2ccc(C(=O)c3c(F)cccc3F)c(N)n2)cc1 | –
12.7 µM | CN(C)S(=O)(=O)c1ccc(Nc2ccc(C(=O)c3cccs3)c(N)n2)cc1 | –
11.6 µM | Nc1ccccc1Nc1ccc(C(=O)c2c(F)cccc2F)c(N)n1 | –
> 10 µM | Nc1nc(Nc2ccc(S(=O)(=O)N(Cc3ccccc3)Cc3ccccc3)cc2)ccc1C(=O)c1c(F)cccc1F | –
21.7 µM | Nc1nc(Nc2ccccc2)ccc1C(=O)c1c(F)cccc1F | –
> 100 µM | Nc1ccc(C(=O)c2cccs2)c(N)n1 | –
> 100 µM | Nc1ccc(C(=O)c2ccco2)c(N)n1 | –
> 100 µM | CC(=O)Nc1ccccc1Nc1ccc(C(=O)c2c(F)cccc2F)c(N)n1 | –
12.3 µM | Nc1nc(Nc2ccccn2)ccc1C(=O)c1c(F)cccc1F | –

IC50 [3] | SMILES | further results
> 100 µM | Nc1nc(Nc2ccccc2NS(=O)(=O)c2ccccc2)ccc1C(=O)c1c(F)cccc1F | –
> 100 µM | CCN(CC)S(=O)(=O)c1ccc(Nc2ccc(C(=O)c3ccccc3)c(N)n2)cc1 | –
0.95 µM | NC(=O)c1ccc(Nc2ccc(C(=O)c3c(F)cccc3F)c(N)n2)cc1 | –
~10 µM | Nc1nc(Nc2ccc(C(=O)O)cc2)ccc1C(=O)c1c(F)cccc1F | –
2.19 µM | CN(C)S(=O)(=O)c1ccc(Nc2ccc(C(=O)c3ccccc3)c(N)n2)cc1 | –
> 10 µM | Nc1nc(Nc2ccccc2[N+](=O)[O-])ccc1C(=O)c1c(F)cccc1F | –
1 µM | CCCCOc1cc(Nc2ccc(S(=O)(=O)N(C)C)cc2)nc(N)c1C(=O)c1c(F)cccc1F | –
1.2 µM | CCCCOc1cc(N)nc(N)c1C(=O)c1c(F)cccc1F | –
0.26 µM | CCCCOc1cc(Nc2ccc(S(N)(=O)=O)cc2)nc(N)c1C(=O)c1c(F)cccc1F | IC50 (HCT-116): 6.7 µM; IC50 [1]: 0.084 µM; IC50 (HeLa): 10.7 µM; IC50 [4]: > 100 µM; IC50 [6]: > 100 µM; IC50 [5]: > 100 µM; IC50 (A-375): 2.9 µM
10.6 µM | CN(C)S(=O)(=O)c1ccc(Nc2ccc(C(=O)c3ccco3)c(N)n2)cc1 | –
1.14 µM | CNc1ccc(Nc2ccc(C(=O)c3c(F)cccc3F)c(N)n2)cc1 | –
0.96 µM | Nc1nc(Nc2ccc([N+](=O)[O-])cc2)ccc1C(=O)c1c(F)cccc1F | –
6.16 µM | Nc1nc(Nc2cccc(Cl)c2)ccc1C(=O)c1c(F)cccc1F | –
1.96 µM | CN(C)S(=O)(=O)c1ccc(Nc2ccc(C(=O)c3ccccc3F)c(N)n2)cc1 | –
2.6 µM | Nc1ccc(C(=O)c2c(F)cccc2F)c(N)n1 | –
> 100 µM | Nc1nc(Nc2ccccc2NC(=O)c2ccccc2)ccc1C(=O)c1c(F)cccc1F | –
